Results as given in PMC3914206.

How the values were obtained:
Assay in all cases: KiNativ chemical proteomics profiling in HeLa and PC3 cell lysates
Format in all cases: binding
[1] = molecular target: T1, selected panels of kinases in HeLa and PC3 cell lysates (Homo sapiens, UniProt O60307); details: 10 uM, peptide DLk[…], labeling site Lys2
T1 construct: endogenous in cells; host or cells: HeLa and PC3 cell lysates

[2] = molecular target: T2, selected panels of kinases in HeLa and PC3 cell lysates (Homo sapiens, UniProt Q9Y5S2); details: 10 uM, proteome PC3
T2 construct: endogenous in cells; host or cells: HeLa and PC3 cell lysates

[3] = molecular target: T3, selected panels of kinases in HeLa and PC3 cell lysates (Homo sapiens, UniProt Q09013); details: 10 uM; proteome HEL; peptide DIkPDNILLDR; labeling site Lys2
T3 construct: endogenous in cells; host or cells: HeLa and PC3 cell lysates

[4] = molecular target: T4, selected panels of kinases in HeLa and PC3 cell lysates (Homo sapiens, UniProt Q13043); details: 10 uM, peptide […]k[…], labeling site Lys1
T4 construct: endogenous in cells; host or cells: HeLa and PC3 cell lysates
T4 sequence (Q13043 1-487): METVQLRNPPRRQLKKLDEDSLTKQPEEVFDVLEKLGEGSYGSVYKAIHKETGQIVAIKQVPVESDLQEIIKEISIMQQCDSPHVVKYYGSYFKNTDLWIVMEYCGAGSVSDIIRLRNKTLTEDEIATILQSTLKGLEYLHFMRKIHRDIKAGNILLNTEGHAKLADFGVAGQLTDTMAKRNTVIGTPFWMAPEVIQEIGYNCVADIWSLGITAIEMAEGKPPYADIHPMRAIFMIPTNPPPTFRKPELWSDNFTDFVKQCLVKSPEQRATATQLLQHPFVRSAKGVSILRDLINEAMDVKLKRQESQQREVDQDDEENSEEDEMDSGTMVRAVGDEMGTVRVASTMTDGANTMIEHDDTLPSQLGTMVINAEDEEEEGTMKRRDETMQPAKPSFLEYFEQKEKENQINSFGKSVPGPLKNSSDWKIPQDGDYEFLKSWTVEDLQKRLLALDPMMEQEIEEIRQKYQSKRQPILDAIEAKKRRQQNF

[5] = molecular target: T5, selected panels of kinases in HeLa and PC3 cell lysates (Homo sapiens, UniProt P30291); details: 10 uM; Wee1; peptide […]k[…]; proteome HEL; labeling site Lys2
T5 construct: endogenous in cells; host or cells: HeLa and PC3 cell lysates

[6] = molecular target: T6, selected panels of kinases in HeLa and PC3 cell lysates (Homo sapiens, UniProt P51617); details: 10 uM; proteome PC3; peptide […]k[…]; labeling site Lys2
T6 construct: endogenous in cells; host or cells: HeLa and PC3 cell lysates

[7] = molecular target: T7, selected panels of kinases in HeLa and PC3 cell lysates (Homo sapiens, UniProt P15056); details: 10 uM; proteome HEL; peptide DLk[…]; labeling site Lys2
T7 construct: endogenous in cells; host or cells: HeLa and PC3 cell lysates

[8] = molecular target: T8, selected panels of kinases in HeLa and PC3 cell lysates (Homo sapiens, UniProt P29323); details: 10 uM; proteome PC3; peptide […]kIPIR; labeling site Activation Loop
T8 construct: endogenous in cells; host or cells: HeLa and PC3 cell lysates

[9] = molecular target: T9, selected panels of kinases in HeLa and PC3 cell lysates (Homo sapiens, UniProt Q9Y572); details: 10 uM; RIPK3; peptide DLk[…]; proteome HEL; labeling site Lys2
T9 construct: endogenous in cells; host or cells: HeLa and PC3 cell lysates

[10] = molecular target: T10, selected panels of kinases in HeLa and PC3 cell lysates (Homo sapiens, UniProt Q99683); details: 10 uM; proteome HEL; peptide DIk[…]; labeling site Lys2
T10 construct: endogenous in cells; host or cells: HeLa and PC3 cell lysates

[11] = molecular target: T11, selected panels of kinases in HeLa and PC3 cell lysates (Homo sapiens, UniProt P12931); details: 10 uM; SRC; peptide VAIk[…]; proteome PC3; labeling site Lys1
T11 construct: endogenous in cells; host or cells: HeLa and PC3 cell lysates

[12] = molecular target: T12, selected panels of kinases in HeLa and PC3 cell lysates (Homo sapiens, UniProt Q15375); details: 10 uM; proteome PC3; peptide […]kIPVR; labeling site Activation Loop
T12 construct: endogenous in cells; host or cells: HeLa and PC3 cell lysates

[13] = molecular target: T13, selected panels of kinases in HeLa and PC3 cell lysates (Homo sapiens, UniProt Q96GD4); details: 10 uM; proteome HEL; peptide SHFIVALkVLFK; labeling site Lys1
T13 construct: endogenous in cells; host or cells: HeLa and PC3 cell lysates

[14] = molecular target: T14, selected panels of kinases in HeLa and PC3 cell lysates (Homo sapiens, UniProt O75582); details: 10 uM; proteome HEL; peptide DIk[…]; labeling site Lys2
T14 construct: endogenous in cells; host or cells: HeLa and PC3 cell lysates

[15] = molecular target: T15, selected panels of kinases in HeLa and PC3 cell lysates (Homo sapiens, UniProt Q13164); details: for ERK5 target occupancy (KiNativ): 10 μM, HeLa and PC3 cell lysates, only ERK5 exceeded this level; for % Inhibiton, Erk5: 10 uM, proteome HEL, peptide DLk[…], labeling site Lys2
T15 construct: endogenous in cells; host or cells: HeLa and PC3 cell lysates

[16] = molecular target: T16, selected panels of kinases in HeLa and PC3 cell lysates (Homo sapiens, UniProt Q15131); details: 10 uM; proteome PC3; peptide DLkVSNLLMTDK; labeling site Lys2
T16 construct: endogenous in cells; host or cells: HeLa and PC3 cell lysates

[17] = molecular target: T17, selected panels of kinases in HeLa and PC3 cell lysates (Homo sapiens, UniProt Q12851); details: 10 uM; proteome HEL; peptide […]kIVK; labeling site Lys1
T17 construct: endogenous in cells; host or cells: HeLa and PC3 cell lysates

[18] = molecular target: T18, selected panels of kinases in HeLa and PC3 cell lysates (Homo sapiens, UniProt Q96J92); details: 10 uM; Wnk4; peptide DLk[…]; proteome PC3; labeling site Lys2
T18 construct: endogenous in cells; host or cells: HeLa and PC3 cell lysates

[19] = molecular target: T19, selected panels of kinases in HeLa and PC3 cell lysates (Homo sapiens, UniProt P07332); details: 10 uM; proteome HEL; peptide […]kSCR; labeling site Lys1
T19 construct: endogenous in cells; host or cells: HeLa and PC3 cell lysates

[20] = molecular target: T20, selected panels of kinases in HeLa and PC3 cell lysates (Homo sapiens, UniProt Q15418); details: 10 uM; RSK1 domain1; peptide LTDFGLSkEAIDHEK; proteome HEL; labeling site Activation Loop
T20 construct: endogenous in cells; host or cells: HeLa and PC3 cell lysates

[21] = molecular target: T21, selected panels of kinases in HeLa and PC3 cell lysates (Homo sapiens, UniProt P27361); details: 10 uM, peptide DLk[…], labeling site Lys2
T21 construct: endogenous in cells; host or cells: HeLa and PC3 cell lysates

[22] = molecular target: T22, selected panels of kinases in HeLa and PC3 cell lysates (Homo sapiens, UniProt O15530); details: 10 uM; PDK1; peptide EYAIkILEK; proteome PC3; labeling site Lys1
T22 construct: endogenous in cells; host or cells: HeLa and PC3 cell lysates

[23] = peptide DIk[…], labeling site Lys2
[24] = peptide […]kLPETK, labeling site Other

T15 sequence (Q13164 whole entry): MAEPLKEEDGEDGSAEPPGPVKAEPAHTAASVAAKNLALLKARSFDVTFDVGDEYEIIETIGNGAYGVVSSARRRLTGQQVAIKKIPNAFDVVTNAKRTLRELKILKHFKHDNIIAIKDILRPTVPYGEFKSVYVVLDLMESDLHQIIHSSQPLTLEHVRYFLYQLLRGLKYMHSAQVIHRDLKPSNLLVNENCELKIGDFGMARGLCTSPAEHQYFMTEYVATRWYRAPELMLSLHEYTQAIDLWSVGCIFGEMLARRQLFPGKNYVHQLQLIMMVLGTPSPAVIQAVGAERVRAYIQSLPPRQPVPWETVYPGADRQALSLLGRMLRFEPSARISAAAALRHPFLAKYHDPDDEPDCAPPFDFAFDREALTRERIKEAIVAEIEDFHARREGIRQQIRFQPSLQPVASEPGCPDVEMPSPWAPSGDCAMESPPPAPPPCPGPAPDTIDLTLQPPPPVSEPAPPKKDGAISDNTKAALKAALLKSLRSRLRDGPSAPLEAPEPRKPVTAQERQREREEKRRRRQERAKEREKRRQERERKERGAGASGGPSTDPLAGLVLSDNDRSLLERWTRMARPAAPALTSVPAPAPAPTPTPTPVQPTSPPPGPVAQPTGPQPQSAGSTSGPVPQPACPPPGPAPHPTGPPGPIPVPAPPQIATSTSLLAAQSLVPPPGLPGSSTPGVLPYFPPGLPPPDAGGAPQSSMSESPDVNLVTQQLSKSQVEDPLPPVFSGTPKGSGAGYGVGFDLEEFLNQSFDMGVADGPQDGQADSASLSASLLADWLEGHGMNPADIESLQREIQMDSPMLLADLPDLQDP
T21 sequence (P27361 whole entry): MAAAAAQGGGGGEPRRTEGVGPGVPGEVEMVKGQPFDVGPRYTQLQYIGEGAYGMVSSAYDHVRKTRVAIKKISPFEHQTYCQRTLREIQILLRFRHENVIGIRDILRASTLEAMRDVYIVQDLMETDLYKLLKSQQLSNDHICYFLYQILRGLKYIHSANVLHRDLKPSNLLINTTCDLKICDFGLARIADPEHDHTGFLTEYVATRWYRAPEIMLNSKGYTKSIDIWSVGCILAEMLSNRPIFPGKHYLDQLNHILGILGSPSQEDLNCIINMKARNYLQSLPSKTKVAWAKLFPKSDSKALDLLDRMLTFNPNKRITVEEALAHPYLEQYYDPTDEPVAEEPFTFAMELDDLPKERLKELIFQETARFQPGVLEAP
T1 sequence (O60307 whole entry): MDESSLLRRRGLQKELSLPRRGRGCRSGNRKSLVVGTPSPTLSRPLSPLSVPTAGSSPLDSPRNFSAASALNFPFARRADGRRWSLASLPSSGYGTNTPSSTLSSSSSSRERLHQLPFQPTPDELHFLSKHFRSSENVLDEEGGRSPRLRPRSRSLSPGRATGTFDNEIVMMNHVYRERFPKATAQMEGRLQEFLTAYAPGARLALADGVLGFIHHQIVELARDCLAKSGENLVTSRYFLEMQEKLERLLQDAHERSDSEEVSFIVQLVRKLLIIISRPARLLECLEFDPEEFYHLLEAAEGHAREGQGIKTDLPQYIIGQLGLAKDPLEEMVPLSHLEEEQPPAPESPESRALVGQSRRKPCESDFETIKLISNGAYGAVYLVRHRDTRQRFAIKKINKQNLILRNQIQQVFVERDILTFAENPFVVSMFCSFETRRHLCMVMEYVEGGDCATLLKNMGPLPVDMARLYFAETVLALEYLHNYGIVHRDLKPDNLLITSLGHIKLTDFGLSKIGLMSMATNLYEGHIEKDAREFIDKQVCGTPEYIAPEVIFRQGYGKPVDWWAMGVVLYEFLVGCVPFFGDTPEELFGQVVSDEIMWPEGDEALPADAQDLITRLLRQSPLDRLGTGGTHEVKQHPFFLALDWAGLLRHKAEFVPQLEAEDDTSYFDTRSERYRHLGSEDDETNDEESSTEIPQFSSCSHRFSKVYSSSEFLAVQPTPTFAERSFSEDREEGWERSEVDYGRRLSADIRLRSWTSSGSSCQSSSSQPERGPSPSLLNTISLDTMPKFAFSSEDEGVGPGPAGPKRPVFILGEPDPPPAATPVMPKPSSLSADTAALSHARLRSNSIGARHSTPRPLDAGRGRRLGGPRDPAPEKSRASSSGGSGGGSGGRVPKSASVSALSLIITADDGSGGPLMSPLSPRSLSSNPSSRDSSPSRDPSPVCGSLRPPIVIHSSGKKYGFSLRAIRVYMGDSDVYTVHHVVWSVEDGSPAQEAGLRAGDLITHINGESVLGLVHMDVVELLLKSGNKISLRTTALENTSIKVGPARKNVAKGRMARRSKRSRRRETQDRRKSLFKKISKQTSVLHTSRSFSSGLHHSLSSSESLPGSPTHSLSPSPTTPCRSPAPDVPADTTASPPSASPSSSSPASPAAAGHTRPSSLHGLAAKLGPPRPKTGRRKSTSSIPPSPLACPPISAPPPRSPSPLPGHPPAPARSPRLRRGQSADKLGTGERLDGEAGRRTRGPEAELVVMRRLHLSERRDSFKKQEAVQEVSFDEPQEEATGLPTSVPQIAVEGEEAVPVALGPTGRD
T2 sequence (Q9Y5S2 whole entry): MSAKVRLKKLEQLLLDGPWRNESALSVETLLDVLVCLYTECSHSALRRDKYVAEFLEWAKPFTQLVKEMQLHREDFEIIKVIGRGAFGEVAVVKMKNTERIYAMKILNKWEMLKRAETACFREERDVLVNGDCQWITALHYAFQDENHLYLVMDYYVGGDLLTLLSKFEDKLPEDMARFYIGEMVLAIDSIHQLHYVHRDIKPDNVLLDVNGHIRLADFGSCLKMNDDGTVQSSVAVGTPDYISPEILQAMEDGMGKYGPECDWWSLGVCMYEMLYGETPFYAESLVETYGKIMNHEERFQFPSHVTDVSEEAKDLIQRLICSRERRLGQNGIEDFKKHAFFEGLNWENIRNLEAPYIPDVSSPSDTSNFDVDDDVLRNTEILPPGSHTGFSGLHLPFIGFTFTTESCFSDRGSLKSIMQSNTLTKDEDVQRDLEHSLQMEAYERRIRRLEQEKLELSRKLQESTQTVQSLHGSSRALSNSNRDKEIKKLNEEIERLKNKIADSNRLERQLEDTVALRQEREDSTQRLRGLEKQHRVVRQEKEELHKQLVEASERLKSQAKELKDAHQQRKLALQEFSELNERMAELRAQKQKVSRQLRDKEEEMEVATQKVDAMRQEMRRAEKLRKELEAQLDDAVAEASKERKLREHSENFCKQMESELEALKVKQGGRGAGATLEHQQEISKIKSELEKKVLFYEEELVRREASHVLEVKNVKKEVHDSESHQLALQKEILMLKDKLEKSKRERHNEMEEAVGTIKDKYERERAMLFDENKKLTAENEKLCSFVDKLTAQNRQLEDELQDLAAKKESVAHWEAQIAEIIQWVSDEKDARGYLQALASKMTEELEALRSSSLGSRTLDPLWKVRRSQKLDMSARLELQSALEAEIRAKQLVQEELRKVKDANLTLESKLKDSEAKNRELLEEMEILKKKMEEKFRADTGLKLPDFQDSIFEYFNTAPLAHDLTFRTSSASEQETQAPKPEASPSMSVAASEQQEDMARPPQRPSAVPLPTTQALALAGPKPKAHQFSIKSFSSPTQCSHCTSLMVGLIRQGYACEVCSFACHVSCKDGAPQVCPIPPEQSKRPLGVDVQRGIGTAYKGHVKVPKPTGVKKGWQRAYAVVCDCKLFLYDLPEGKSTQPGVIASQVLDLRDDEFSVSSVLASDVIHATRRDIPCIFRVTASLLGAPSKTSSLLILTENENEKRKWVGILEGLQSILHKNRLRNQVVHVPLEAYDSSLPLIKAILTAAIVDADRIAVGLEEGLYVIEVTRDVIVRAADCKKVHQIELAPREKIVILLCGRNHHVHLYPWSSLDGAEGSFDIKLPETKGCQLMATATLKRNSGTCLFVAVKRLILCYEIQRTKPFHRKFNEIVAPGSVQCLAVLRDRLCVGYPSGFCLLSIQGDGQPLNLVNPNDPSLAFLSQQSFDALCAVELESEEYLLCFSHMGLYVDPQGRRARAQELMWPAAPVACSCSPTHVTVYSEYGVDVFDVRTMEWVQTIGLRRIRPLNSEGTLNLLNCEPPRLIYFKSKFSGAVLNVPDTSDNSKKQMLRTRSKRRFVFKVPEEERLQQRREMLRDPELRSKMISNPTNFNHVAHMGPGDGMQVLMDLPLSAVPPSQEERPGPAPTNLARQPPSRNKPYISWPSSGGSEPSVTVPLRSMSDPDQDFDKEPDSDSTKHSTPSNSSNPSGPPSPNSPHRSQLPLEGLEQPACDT
T3 sequence (Q09013 whole entry): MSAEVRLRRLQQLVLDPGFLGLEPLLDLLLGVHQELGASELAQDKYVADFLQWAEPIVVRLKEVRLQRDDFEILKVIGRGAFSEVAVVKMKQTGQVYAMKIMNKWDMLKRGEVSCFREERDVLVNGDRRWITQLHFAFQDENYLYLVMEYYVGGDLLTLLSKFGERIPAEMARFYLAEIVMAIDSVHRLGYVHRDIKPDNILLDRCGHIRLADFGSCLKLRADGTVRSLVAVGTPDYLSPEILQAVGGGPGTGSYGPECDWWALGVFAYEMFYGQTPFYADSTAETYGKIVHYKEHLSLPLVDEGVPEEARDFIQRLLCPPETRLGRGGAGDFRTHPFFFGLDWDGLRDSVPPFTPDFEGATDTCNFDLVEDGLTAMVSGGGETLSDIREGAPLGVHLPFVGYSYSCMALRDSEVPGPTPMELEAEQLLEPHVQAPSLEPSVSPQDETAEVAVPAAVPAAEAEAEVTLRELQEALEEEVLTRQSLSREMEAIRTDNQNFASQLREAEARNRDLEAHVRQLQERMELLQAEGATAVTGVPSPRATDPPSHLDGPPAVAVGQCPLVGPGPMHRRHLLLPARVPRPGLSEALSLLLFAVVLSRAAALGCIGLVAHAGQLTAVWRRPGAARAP

Structure (SMILES)	% Inhibiton, MAST3 ([1]; proteome HEL) [%]	% Inhibiton, MAST3 ([1]; proteome PC3) [%]	% Inhibiton, MRCKb [2, 23] [%]	% Inhibiton, MRCKb [2, 24] [%]	% Inhibiton, DMPK1 [3] [%]	% Inhibiton, MST1 ([4]; proteome HEL) [%]	% Inhibiton, MST1 ([4]; proteome PC3) [%]	% Inhibition Wee1 [5] [%]	% Inhibiton, IRAK1 [6] [%]	% Inhibiton, BRAF [7] [%]	% Inhibiton, EphB2 [8] [%]	% Inhibition RIPK3 [9] [%]	% Inhibiton, MAP3K5 [10] [%]	% Inhibition SRC [11] [%]	% Inhibiton, EphA7 [12] [%]	% Inhibiton, AurB [13] [%]	% Inhibiton, MSK1 domain1 [14] [%]	ERK5 target occupancy (KiNativ) [15]	% Inhibiton, Erk5 [15] [%]	% Inhibiton, CDK10 [16] [%]	further results
CCOc1cc(C(=O)N2CCC(N3CCN(C)CC3)CC2)ccc1Nc1ncc2c(n1)N(C1CCCC1)c1ccccc1C(=O)N2C [Compound 26]	-5.1	-3.9	1.8	9.2	29.4	15.9	-17.2	2.9	-2.9	8.6	-3.1	-2.4	-8.4	13.8	8.5	42.5	~70.5	higher than 90%	94.3	10.4	% Inhibiton, GCK [17]: 6.8%; % Inhibition Wnk4 [18]: -2.1%; % Inhibiton, FES [19]: 4.1%; % Inhibition RSK1 domain1 [20]: 5.6%; % Inhibiton, Erk1 ([21]; proteome HEL): -1.3%; % Inhibiton, Erk1 ([21]; proteome PC3): -0.2%; % Inhibition PDK1 [22]: 0%
COc1cc(C(=O)N2CCC(N3CCN(C)CC3)CC2)ccc1Nc1ncc2c(n1)N(C1CCCC1)c1ccccc1C(=O)N2C [Compound 25, 11-cyclopentyl-2-((2-methoxy-4-(4-(4-methylpiperazin-1-yl)piperidine-1-carbonyl)phenyl)amino)-5-methyl-5H-benzo[e]pyrimido[5,4-b][1,4]diazepin-6(11H)-one]	0.5	-6.8	-5.1	6.2	10.0	-9.9	-0.157	11.1	1.2	-0.2	-3.8	-1.3	17.3	-3.4	-3.8	65.8	26.7	higher than 90%	>95	-11.0	% Inhibiton, GCK [17]: -2.3%; % Inhibition Wnk4 [18]: -16.3%; % Inhibiton, FES [19]: 6.0%; % Inhibition RSK1 domain1 [20]: 0.161%; % Inhibiton, Erk1 ([21]; proteome HEL): 20.3%; % Inhibiton, Erk1 ([21]; proteome PC3): 8.4%; % Inhibition PDK1 [22]: -5.4%
